From paper PMC7949049 (The Journal of Biological Chemistry, 2020)
Where a chain is given by its changes, count along the chain named. In names and notes the source's numbering stands. Entries after “also recorded” stand apart in the source; their conditions may differ. Positions of bridges follow the written chain, without caps; N, C: chain ends. Non-standard residues stand in square brackets, D forms with d. Residues, ends and D or L forms follow the SMILES beside them. No end group written: not given here. *: point of attachment. 5FAM = O=C1OC2(c3ccc(O)cc3Oc3cc(O)ccc32)c2ccc(C(=O)*)cc21; S5 = C=CCCC[C@](C)(N)C(=O)O; PEG2 = NCCOCCOCCC(=O)O

Tests used:
RalA·GDP = biological target: T1, RalA·GDP (Homo sapiens, UniProt P11233, Q72L); assay: Direct-binding fluorescence polarization, RalA·GDP; conditions: 20 nM FAM-labeled peptide, n = 3, NB = no binding; for Kd: read-out: Kd RalA·GDP, FP
T1 construct: RalA (pMAT10, residues 1–184, Q72L); His6-MBP (cleaved yes); made in house
T1 sequence (P11233 1-184 Q72L): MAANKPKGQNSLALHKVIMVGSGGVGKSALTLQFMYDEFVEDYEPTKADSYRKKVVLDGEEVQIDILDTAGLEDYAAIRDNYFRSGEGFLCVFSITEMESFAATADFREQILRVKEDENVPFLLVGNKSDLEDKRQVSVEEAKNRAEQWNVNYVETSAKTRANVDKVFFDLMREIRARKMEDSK
Experimental: (§1) FP experiments were performed on a BMG Labtech Pherastar fluorimeter at 298 K with excitation at 485 nm and emission at 520 nm as described previously ([34]), using 20 nM FAM-labeled peptide. Plates were read after 30 min incubation at room temperature. Data were fitted to a single-site binding model using nonlinear regression analysis in GraphPad prism 8.4 to obtain Kd values and their standard errors.

RhoA·GMPPNP = biological target: T2, RhoA·GMPPNP (Homo sapiens, UniProt P61586, F25N/Q63L); assay: Direct-binding fluorescence polarization, RhoA; conditions: 20 nM FAM-labeled peptide, n = 3, NB = no binding, GTPase up to 100 μM; for Kd: read-out: Kd RhoA·GMPPNP, FP
T2 construct: RhoA (pGEX-2T, 1–186, F25N/Q63L); GST (cleaved yes); made in house
T2 sequence (P61586 1-186 F25N/Q63L): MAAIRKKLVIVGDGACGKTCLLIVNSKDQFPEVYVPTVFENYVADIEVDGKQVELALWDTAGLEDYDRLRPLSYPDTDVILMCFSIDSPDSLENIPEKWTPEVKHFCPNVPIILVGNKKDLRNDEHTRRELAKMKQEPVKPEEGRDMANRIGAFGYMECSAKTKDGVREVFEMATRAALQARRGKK
Experimental: as §1

Rac1·GMPPNP = biological target: T3, Rac1·GMPPNP (Homo sapiens, UniProt P63000, Q61L); assay: Direct-binding fluorescence polarization, Rac1; conditions: 20 nM FAM-labeled peptide, n = 3, NB = no binding, GTPase up to 100 μM; for Kd: read-out: Kd Rac1·GMPPNP, FP
T3 construct: Rac1 (pGEX-2T, 1–185, Q61L); GST (cleaved yes); made in house
Experimental: as §1

RalA = assay: Direct-binding SPA of RalA to His-tagged RLIP76 RBD variants; conditions: 80 nM His-tagged RBD, n = 2; for apparent Kd RalA, direct SPA (Fig. S1): [3H]GTP-labelled RalA titrated, experiment of Fig. S1
Experimental: Ral proteins were labeled with [^3H]GTP for use in SPAs as follows. [^3H]GTP (0.15 mCi, PerkinElmer Life Sciences) was dried by centrifugal evaporation. Ral (0.7 mg) and 0.3 M (NH4)2SO4 were added in 140 μl of buffer (10 mM Tris-HCl, 150 mM NaCl, 1 mM DTT, pH 7.5). The mixture was incubated at 37 °C for 3 h, and unbound nucleotide was removed with Sephadex G25 spin columns (GE Healthcare).
[^3H]GTP·Ral proteins were titrated at the concentrations indicated in the results. […] The equilibrium binding constants (Kd) for the effector–Ral interactions were determined by monitoring the SPA signal in the presence of varying concentrations of [^3H]GTP·Ral and fitted using nonlinear regression with the computer program Grafit.

[1] = biological target: T4, RalA (residues 1-184, Q72L) (UniProt P11233 1-184, Q72L); assay: fluorescence polarisation; direct binding of 20 nM FAM-labelled peptide to varying concentrations of small GTPase; 298 K; read after 30 min at room temperature; single-site binding model; n >= 2; conditions: both partners purified
T4 construct: RalA small GTPase, residues 1-184, constitutively active Q72L; Loaded with [3H]GTP for the SPAs; also called [3H]GTP-labelled RalA; source: expressed from pMAT10 as His6-MBP fusion, prepared and cleaved from its tags as described previously
T4 sequence (looked up): T1 sequence (P11233 1-184 Q72L)

[2] = biological target: T5, RalB (residues 1-185, Q72L) (UniProt P11234 1-185, Q72L); assay: as above; conditions: both partners purified
T5 construct: source: expressed from pMAT10 as His6-MBP fusion, prepared and cleaved from its tags as described previously
T5 sequence (looked up): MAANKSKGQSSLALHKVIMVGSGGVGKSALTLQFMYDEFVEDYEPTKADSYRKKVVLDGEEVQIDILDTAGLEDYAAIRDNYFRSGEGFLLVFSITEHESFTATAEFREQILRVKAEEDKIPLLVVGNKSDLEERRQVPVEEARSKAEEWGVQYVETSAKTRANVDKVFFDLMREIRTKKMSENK

[3] = biological target: T6, RalA (residues 1–184, Q72L) (UniProt P11233 1-184, Q72L); assay: scintillation proximity assay (competition); GST-tagged Sec5 RBD immobilised on SPA beads, fixed [3H]-GTP RalA, peptides or RLIP76 RBD titrated; pure competition model, apparent Kd (Ki); conditions: both partners purified
T6 construct: RalA small GTPase, residues 1-184, constitutively active Q72L; Loaded with [3H]GTP for SPA, with GMPPNP or GDP for fluorescence polarisation; also called RalA·GTP; [3H]-GTP RalA; source: expressed from pMAT10 as His6-MBP fusion, cleaved from its tag as described previously
T6 sequence (looked up): T1 sequence (P11233 1-184 Q72L)

[4] = biological target: T6, RalA (residues 1–184, Q72L); assay: scintillation proximity assay (competition); His-tagged wild-type RLIP76 RBD immobilised on SPA beads, fixed [3H]GTP·RalA (100 nM) or [3H]GTP·RalB (250 nM), competitor RBD or peptide titrated; pure competition model, apparent Kd (Ki); conditions: both partners purified
[5] = biological target: T6, RalA (residues 1–184, Q72L); assay: as above; conditions: both partners purified; remark: listed apart in the source
[6] = biological target: T7, RalB (residues 1–185, Q72L) (UniProt P11234 1-185, Q72L); assay: as above; conditions: both partners purified
T7 construct: Loaded with [3H]GTP for SPA, with GMPPNP for ITC, FP and crystallisation; also called RalB·GTP; source: expressed from pMAT10 as His6-MBP fusion, cleaved from its tag as described previously
T7 sequence (looked up): T5 sequence (looked up)

For `CC[C@H](C)[C@H](NC(=O)[C@H](CCCNC(=N)N)NC(=O)[C@H](CC(C)C)NC(=O)[C@H](CCC(=O)O)NC(=O)[C@H](CCC(=O)O)NC(=O)[C@H](Cc1c[nH]c2ccccc12)NC(=O)[C@H](CC(C)C)NC(=O)[C@]1(C)CCCC=CCCC[C@](C)(NC(=O)[C@H](CC(C)C)NC(=O)CCOCCOCCNC(=O)c2ccc3c(c2)C(=O)OC32c3ccc(O)cc3Oc3cc(O)ccc32)C(=O)N[C@@H](CCCCN)C(=O)N[C@@H](CCC(=O)O)C(=O)N[C@@H](Cc2c[nH]cn2)C(=O)N1)C(=O)N[C@@H](CCCCN)C(=O)N[C@H](C(=O)N[C@@H](C)C(=O)N[C@@H](CCC(=O)O)C(=O)N[C@@H](CCCNC(=N)N)C(=O)N[C@@H](CCCNC(=N)N)C(=O)N[C@@H](CCCCN)C(=O)N[C@@H](CCCCN)C(=O)N[C@@H](CCCNC(=N)N)C(=O)N[C@@H](CCC(=O)O)C(=O)N[C@@H](C)C(N)=O)[C@@H](C)O` [HLR-sol] ({5FAM-PEG2}-L[S5]KEH[S5]LWEELRIKTAERRKKREA-NH2; staple 2-6), which “Kd RalA·GDP, FP” value (RalA·GDP) is on record?
Its value is “binding was too weak”.

And the Kd (RalA·GDP)?
The Kd was greater than 100 µM.

And the “Kd RhoA·GMPPNP, FP” value (RhoA·GMPPNP)?
Its value is “binding was too weak”.

And the Kd (RhoA·GMPPNP)?
The Kd was greater than 100 µM.

What about the “Kd Rac1·GMPPNP, FP” value (Rac1·GMPPNP) of the same molecule?
Its value is “binding was too weak”.

And the Kd (Rac1·GMPPNP)?
The Kd was greater than 100 µM.

`CC[C@H](C)[C@H](NC(=O)[C@H](CCCNC(=N)N)NC(=O)[C@H](CC(C)C)NC(=O)[C@H](CCC(=O)O)NC(=O)[C@H](CCC(=O)O)NC(=O)[C@H](Cc1c[nH]c2ccccc12)NC(=O)[C@H](CC(C)C)NC(=O)[C@]1(C)CCCC=CCCC[C@](C)(NC(=O)[C@H](CC(C)C)NC(=O)CCOCCOCCNC(=O)c2ccc3c(c2)C(=O)OC32c3ccc(O)cc3Oc3cc(O)ccc32)C(=O)N[C@@H](CCCCN)C(=O)N[C@@H](CCC(=O)O)C(=O)N[C@@H](CCC(=O)O)C(=O)N1)C(=O)N[C@@H](CCCCN)C(=O)N[C@H](C(=O)N[C@@H](C)C(=O)N[C@@H](CCC(=O)O)C(=O)N[C@@H](CCCCN)C(=O)N[C@@H](CCCNC(=N)N)C(=O)N[C@@H](CCCCN)C(=O)N[C@@H](CCCCN)C(=O)N[C@@H](CCCNC(=N)N)C(=O)N[C@@H](CCC(=O)O)C(=O)N[C@@H](C)C(N)=O)[C@@H](C)O` [L-sol] ({5FAM-PEG2}-L[S5]KEE[S5]LWEELRIKTAEKRKKREA-NH2; staple 2-6) was tested. Which “Kd RalA·GDP, FP” value (RalA·GDP) did it give?
The value was “binding was too weak”.

What about the Kd (RalA·GDP) of the same molecule?
The Kd was greater than 100 µM.

What about the “Kd RhoA·GMPPNP, FP” value (RhoA·GMPPNP) of the same molecule?
The value was “binding was too weak”.

What about the Kd (RhoA·GMPPNP) of the same molecule?
Its Kd is greater than 100 µM.

And the “Kd Rac1·GMPPNP, FP” value (Rac1·GMPPNP)?
The value was “binding was too weak”.

And the Kd (Rac1·GMPPNP)?
The Kd was greater than 100 µM.

How did the “apparent Kd RalA, direct SPA (Fig. S2)” value (RalA; [3H]GTP-labeled RalA titrated, experiment of Fig. S2) turn out when “ETQAGIKEEIRRQEFLLNSLHRDLQGGIKDLSKWDRAWEVSQILSALRRKLREA [WDASQSR]” was run?
Its value is “no fit could be obtained as binding was too weak; also recorded: did not bind”.

With “LTTLR mutant: His-tagged RLIP76 RBD consensus sequence lacking the K440P substitution (ETQAGIKEEIRRQEFLLNSLHRDLQGGIKDLSKLTRLWEVTLILRALKRKLREA; also: His-tagged, tag position not given here)” as the molecule, how does the “apparent Kd RalA, direct SPA (Fig. S1)” value (RalA) read?
The value was “no fit could be obtained as binding was too weak”.

And the “apparent Kd RalA, direct SPA (Fig. S1)” value (RalA; listed as E426L/E427T/Q433T/R434L/T437R)?
Its value is “did not bind”.

What does the source list for 5FAM-L[S5]KEH[S5]LWEVLRILTALRRKLREA (staple 2-6)?
Kd [1]: 4.68 µM; Kd [2]: 0.159 µM

B1: HLR-sol stapled peptide (peptide)
chain: L[S5]KEH[S5]LWEELRIKTAERRKKREA-NH2
modifications: staple 2-6; N-terminus assumed
SMILES: CC[C@H](C)[C@H](NC(=O)[C@H](CCCNC(=N)N)NC(=O)[C@H](CC(C)C)NC(=O)[C@H](CCC(=O)O)NC(=O)[C@H](CCC(=O)O)NC(=O)[C@H](Cc1c[nH]c2ccccc12)NC(=O)[C@H](CC(C)C)NC(=O)[C@]1(C)CCCC=CCCC[C@](C)(NC(=O)[C@@H](N)CC(C)C)C(=O)N[C@@H](CCCCN)C(=O)N[C@@H](CCC(=O)O)C(=O)N[C@@H](Cc2c[nH]cn2)C(=O)N1)C(=O)N[C@@H](CCCCN)C(=O)N[C@H](C(=O)N[C@@H](C)C(=O)N[C@@H](CCC(=O)O)C(=O)N[C@@H](CCCNC(=N)N)C(=O)N[C@@H](CCCNC(=N)N)C(=O)N[C@@H](CCCCN)C(=O)N[C@@H](CCCCN)C(=O)N[C@@H](CCCNC(=N)N)C(=O)N[C@@H](CCC(=O)O)C(=O)N[C@@H](C)C(N)=O)[C@@H](C)O
What does the source list for B1?
Kd [3]: 1.74 µM; Kd [4]: 2.97 µM

B2: wt-sol stapled peptide (peptide)
chain: L[S5]KEE[S5]LWEEQRIKTAEKRKKREA-NH2
modifications: staple 2-6; N-terminus assumed
SMILES: CC[C@H](C)[C@H](NC(=O)[C@H](CCCNC(=N)N)NC(=O)[C@H](CCC(N)=O)NC(=O)[C@H](CCC(=O)O)NC(=O)[C@H](CCC(=O)O)NC(=O)[C@H](Cc1c[nH]c2ccccc12)NC(=O)[C@H](CC(C)C)NC(=O)[C@]1(C)CCCC=CCCC[C@](C)(NC(=O)[C@@H](N)CC(C)C)C(=O)N[C@@H](CCCCN)C(=O)N[C@@H](CCC(=O)O)C(=O)N[C@@H](CCC(=O)O)C(=O)N1)C(=O)N[C@@H](CCCCN)C(=O)N[C@H](C(=O)N[C@@H](C)C(=O)N[C@@H](CCC(=O)O)C(=O)N[C@@H](CCCCN)C(=O)N[C@@H](CCCNC(=N)N)C(=O)N[C@@H](CCCCN)C(=O)N[C@@H](CCCCN)C(=O)N[C@@H](CCCNC(=N)N)C(=O)N[C@@H](CCC(=O)O)C(=O)N[C@@H](C)C(N)=O)[C@@H](C)O
B2 was tested. Which Kd [4] did it give?
Its Kd is 48.6 µM.

What does the source list for 5FAM-L[S5]KEE[S5]LWEVQRILTALKRKLREA (staple 2-6)?
Kd [1]: 17.2 µM; Kd [2]: 4.7 µM

B3: RLIP76 RBD WNASELR mutant (domain or fragment)
chain: ETQAGIKEEIRRQEFLLNSLHRDLQGGIKDLSKWNRAWEVSEILLALRRKLREA
notes: RLIP76 residues 423-446 (helix α2); Selected by CIS display; source: E. coli, recombinant; cleaved from its tag
How did the Kd [5] turn out when B3 was run?
Its Kd is 2.75 µM.

And the Kd [6]?
The Kd was 10.3 µM.

B4: RLIP76 RBD WDASTAY mutant (domain or fragment)
chain: B3 chain with N35D, E42T, L45A, R48Y
notes: as for B3
With B4 as the molecule, how does the Kd [5] read?
The Kd was 0.53 µM.

And the Kd [6]?
Its Kd is 1.2 µM.
